Results as given in the supplement of paper PMC11061612.

Key:
[1] = test system: EJM (Plasma Cell Myeloma); experiment: Bliss excess, mean over the matrix (fraction); higher = more synergy
How it was run: (§1)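 Bliss excess equals the observed combination effect minus the expected value EA + EB − EA·EB, where EA and EB are the effects of each agent alone. Combination Emax is the second-highest inhibition within the matrix. Inhibition was scaled from CellTiter-Glo 2.0 luminescence, with 0 set by vehicle wells and 1 by blank wells, after 72 hours of two-drug dosing of cells plated in 1536-well plates.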

[2] = test system: NCI-H2122 (Lung Adenocarcinoma); experiment: as above
How it was run: as §1

[3] = test system: SW872 (Other Solid Carcinomas); experiment: combination Emax (second highest fraction inhibited in the dose matrix, 72 h); higher = more inhibition; extreme values may be limits of the assay
How it was run: as §1

[4] = test system: KOPN-8 (B-Lymphoblastic Leukemia); experiment: as above
How it was run: as §1

[5] = test system: MV-4-11 (Acute Myeloid Leukemia); experiment: as above
How it was run: as §1

[6] = test system: MOLT-4 (T-Lymphoblastic Leukemia); experiment: as above
How it was run: as §1

[7] = test system: NCI-H2122 (Lung Adenocarcinoma); experiment: as above
How it was run: as §1

COLO-679 (Melanoma) = experiment: as above
How it was run: as §1

[8] = test system: SNU-387 (Hepatocellular Carcinoma); experiment: as above
How it was run: as §1

[9] = test system: ME-180 (Cervical Carcinoma); experiment: as above
How it was run: as §1

[10] = test system: HAL-01 (B-Lymphoblastic Leukemia); experiment: as above
How it was run: as §1

[11] = test system: OACM5-1 (Esophageal Adenocarcinoma); experiment: as above
How it was run: as §1

[12] = test system: NCI-H1838 (Lung Adenocarcinoma); experiment: as above
How it was run: as §1

[13] = test system: NCI-H1092 (Small Cell Lung Carcinoma); experiment: as above
How it was run: as §1

[14] = test system: KGN (Other Solid Carcinomas); experiment: as above
How it was run: as §1

[15] = test system: MDA-MB-453 (Breast Carcinoma); experiment: as above
How it was run: as §1

[16] = test system: A4-Fuk (B-Lymphoblastic Leukemia); experiment: as above
How it was run: as §1

[17] = test system: HCC1937 (Breast Carcinoma); experiment: as above
How it was run: as §1

EW-1 (Ewing's Sarcoma) = experiment: as above
How it was run: as §1

| SMILES | Bliss excess [1] | Bliss excess [2] | combination Emax [3] | combination Emax [4] | combination Emax [5] | combination Emax [6] | combination Emax [7] | combination Emax (COLO-679 (Melanoma)) | combination Emax [8] | combination Emax [9] | combination Emax [10] | combination Emax [11] | combination Emax [12] | combination Emax [13] | combination Emax [14] | combination Emax [15] | combination Emax [16] | combination Emax [17] | combination Emax (EW-1 (Ewing's Sarcoma)) |
| --- | --- | --- | --- | --- | --- | --- | --- | --- | --- | --- | --- | --- | --- | --- | --- | --- | --- | --- | --- |
| COc1cccc2c1C(=O)c1c(O)c3c(c(O)c1C2=O)C[C@@](O)(C(=O)CO)C[C@@H]3O[C@H]1C[C@H](N)[C@H](O)[C@H](C)O1 [Doxorubicin] + Cc1cc2ncnn2cc1Nc1ncc2c(n1)n(C1CCOCC1)c(=O)n2C [AZD7648] (first compound max 1 µM, 7x7, partner max 10 µM) | 0.0833 | 0.0669 | 0.811 | 0.916 | 1 | 1 | 0.284 | 0.959 | 0.65 | 0.958 | 0.986 | 0.834 | 0.559 | 0.479 | 0.901 | 0.639 | 0.877 | 0.439 | 0.952 |
| COc1cccc(OCCCN)c1-c1cc(Nc2cnc(C#N)cn2)n[nH]1 [Prexasertib] + C=CCn1c(=O)c2cnc(Nc3ccc(N4CCN(C)CC4)cc3)nc2n1-c1cccc(C(C)(C)O)n1 [AZD1775] (first compound max 1 µM, partner max 1 µM) | 0.0228 | 0.0341 | 0.933 | 0.995 | 1 | 1 | 0.984 | 0.827 | 0.729 | 0.652 | 1 | 0.802 | 0.704 | 0.756 | 0.862 | 0.909 | 0.906 | 0.584 | 0.966 |
| COc1cccc(OCCCN)c1-c1cc(Nc2cnc(C#N)cn2)n[nH]1 [Prexasertib] + CCc1c2c(nc3ccc(O)cc13)-c1cc3c(c(=O)n1C2)COC(=O)[C@]3(O)CC [SN-38] (first compound max 1 µM, 7x7, partner max 0.3 µM) | -0.0446 | -0.0405 | 1 | 1 | 1 | 1 | 0.984 | 0.826 | 0.795 | 0.948 | 1 | 0.854 | 0.946 | 0.899 | 0.89 | 0.929 | 0.972 | 0.92 | 0.995 |
| COc1cccc(OCCCN)c1-c1cc(Nc2cnc(C#N)cn2)n[nH]1 [Prexasertib] + CN(C)CCCOc1ccc(-c2ccc3ncc4c(c3c2)n(C2CCOCC2)c(=O)n4C)cn1 [AZD0156] (first compound max 1 µM, 7x7, partner max 1 µM) | -0.0303 | -0.0115 | 0.863 | 0.947 | 0.998 | 1 | 0.975 | 0.871 | 0.531 | 0.324 | 1 | 0.624 | 0.598 | 0.74 | 0.753 | 0.926 | 0.885 | 0.537 | 0.958 |
| COc1cccc(OCCCN)c1-c1cc(Nc2cnc(C#N)cn2)n[nH]1 [Prexasertib] + C[C@@H]1COCCN1C2=NC(=NC(=C2)C3(CC3)[S@](=N)(=O)C)C4=C5C=CNC5=NC=C4 [AZD6738] (first compound max 1 µM, 7x7, partner max 10 µM) | -0.044 | -0.0262 | 0.884 | 0.977 | 1 | 1 | 0.99 | 0.867 | 0.537 | 0.485 | 1 | 0.621 | 0.689 | 0.698 | 0.834 | 0.888 | 0.879 | 0.537 | 0.96 |
| COc1cccc(OCCCN)c1-c1cc(Nc2cnc(C#N)cn2)n[nH]1 [Prexasertib] + Cc1cc2ncnn2cc1Nc1ncc2c(n1)n(C1CCOCC1)c(=O)n2C [AZD7648] (first compound max 1 µM, 7x7, partner max 10 µM) | -0.0334 | -0.0289 | 0.867 | 0.966 | 1 | 1 | 0.984 | 0.902 | 0.552 | 0.411 | 1 | 0.643 | 0.54 | 0.707 | 0.859 | 0.908 | 0.89 | 0.537 | 0.962 |
| COc1cccc(OCCCN)c1-c1cc(Nc2cnc(C#N)cn2)n[nH]1 [Prexasertib] + O=C(c1cc(Cc2n[nH]c(=O)c3ccccc23)ccc1F)N1CCN(C(=O)C2CC2)CC1 [Olaparib] (first compound max 1 µM, 7x7, partner max 10 µM) | -0.0434 | -0.0471 | 0.937 | 0.961 | 0.998 | 1 | 1 | 0.851 | 0.542 | 0.429 | 1 | 0.641 | 0.46 | 0.67 | 0.829 | 0.776 | 0.919 | 0.503 | 0.96 |
| CCc1c2c(nc3ccc(O)cc13)-c1cc3c(c(=O)n1C2)COC(=O)[C@]3(O)CC [SN-38] + CN(C)CCCOc1ccc(-c2ccc3ncc4c(c3c2)n(C2CCOCC2)c(=O)n4C)cn1 [AZD0156] (first compound max 0.3 µM, 7x7, partner max 1 µM) | -0.0052 | 0.151 | 0.98 | 0.957 | 1 | 1 | 0.843 | 0.659 | 0.229 | 0.892 | 1 | 0.763 | 0.607 | 0.323 | 0.937 | 0.772 | 0.923 | 0.487 | 0.982 |
| CCc1c2c(nc3ccc(O)cc13)-c1cc3c(c(=O)n1C2)COC(=O)[C@]3(O)CC [SN-38] + O=C(c1cc(Cc2n[nH]c(=O)c3ccccc23)ccc1F)N1CCN(C(=O)C2CC2)CC1 [Olaparib] (first compound max 0.3 µM, 7x7, partner max 10 µM) | 0.0404 |  | 1 | 0.965 | 1 | 1 |  | 0.743 | 0.146 | 0.914 | 1 | 0.796 |  | 0.54 | 0.918 | 0.746 | 0.96 |  | 0.99 |
| CC(=O)Nc1cccc(-n2c(=O)n(C3CC3)c(=O)c3c(Nc4ccc(I)cc4F)n(C)c(=O)c(C)c32)c1 [Trametinib] + Cc1nc(-c2cn3c(n2)-c2ccc(-c4cnn(C(C)(C)C(N)=O)c4)cc2OCC3)n(C(C)C)n1 [Taselisib] (first compound max 1 µM, 7x7, partner max 10 µM) | 0.142 | 0.0862 | 0.588 | 0.635 | 0.848 | 0.859 | 1 | 0.856 | 1 | 0.714 | 0.687 | 0.82 | 0.476 | 0.161 | 0.807 | 0.798 | 1 | 0.722 | 0.761 |
| CC1(C)CCC(CN2CCN(c3ccc(C(=O)NS(=O)(=O)c4ccc(NCC5CCOCC5)c([N+](=O)[O-])c4)c(Oc4cnc5[nH]ccc5c4)c3)CC2)=C(c2ccc(Cl)cc2)C1 [Venetoclax] + C1CN(CCC1(C(=O)N[C@@H](CCO)C2=CC=C(C=C2)Cl)N)C3=NC=NC4=C3C=CN4 [Capivasertib] (first compound max 1 µM, 7x7, partner max 3 µM) | 0.0067 | 0.0256 | 0.152 | 0.824 | 1 | 0.718 | 0.498 | 0.146 | 0.23 | 0.517 | 0.916 | 0.592 | 0.283 | 0.354 | 0.389 | 0.463 | 0.724 | 0.373 | 0.365 |
| CC1(C)CCC(CN2CCN(c3ccc(C(=O)NS(=O)(=O)c4ccc(NCC5CCOCC5)c([N+](=O)[O-])c4)c(Oc4cnc5[nH]ccc5c4)c3)CC2)=C(c2ccc(Cl)cc2)C1 [Venetoclax] + C=CCn1c(=O)c2cnc(Nc3ccc(N4CCN(C)CC4)cc3)nc2n1-c1cccc(C(C)(C)O)n1 [AZD1775] (first compound max 1 µM, partner max 1 µM) | -0.0641 | -0.0409 | 0.557 | 1 | 1 | 1 | 0.98 | 0.413 | 0.702 | 0.599 | 1 | 0.558 | 0.421 | 0.696 | 0.68 | 0.769 | 0.883 | 0.406 | 0.947 |
| CC1(C)CCC(CN2CCN(c3ccc(C(=O)NS(=O)(=O)c4ccc(NCC5CCOCC5)c([N+](=O)[O-])c4)c(Oc4cnc5[nH]ccc5c4)c3)CC2)=C(c2ccc(Cl)cc2)C1 [Venetoclax] + CCN(CCO)CCCOc1ccc2c(Nc3cc(CC(=O)Nc4cccc(F)c4)[nH]n3)ncnc2c1 [AZD2811] (first compound max 1 µM, 7x7, partner max 1 µM) | 0.0261 | -0.0579 | 0.142 | 0.974 | 1 | 1 | 0.702 | 0.133 | 0.215 | 0.243 | 0.959 | 0.421 | 0.226 | 0.39 | 0.509 | 0.211 | 0.748 | 0.264 | 0.365 |
